Data: ChEMBL document CHEMBL1201862, “PubChem BioAssay data set” (2004)
Calls of active or inactive are those of the source.

Key:
cells [1] = format: functional, cell-based
[2] = biological target: T1, Trace amine-associated receptor 1 (Homo sapiens, UniProt Q96RJ0); assay: Fluorescence-based cell-based high throughput dose response assay to identify agonists of the human trace amine associated receptor 1 (TAAR1).; format: functional
[3] = biological target: T1, Trace amine-associated receptor 1; assay: Counterscreen for agonists of the human trace amine associated receptor 1 (hTAAR1): Fluorescence-based cell-based high throughput dose response assay to identify hTAAR1 agonist that also desensitize TAAR1 receptor response.; format: functional
cells [4] = format: functional, cell-based; remark: listed apart in the source
[5] = biological target: Luciferin 4-monooxygenase (Photinus pyralis, UniProt P08659); assay: firefly luciferase enzyme inhibitors, dose response, biochemical, luminescence (AID 1891)
Chain of Luciferin 4-monooxygenase (P08659 whole entry): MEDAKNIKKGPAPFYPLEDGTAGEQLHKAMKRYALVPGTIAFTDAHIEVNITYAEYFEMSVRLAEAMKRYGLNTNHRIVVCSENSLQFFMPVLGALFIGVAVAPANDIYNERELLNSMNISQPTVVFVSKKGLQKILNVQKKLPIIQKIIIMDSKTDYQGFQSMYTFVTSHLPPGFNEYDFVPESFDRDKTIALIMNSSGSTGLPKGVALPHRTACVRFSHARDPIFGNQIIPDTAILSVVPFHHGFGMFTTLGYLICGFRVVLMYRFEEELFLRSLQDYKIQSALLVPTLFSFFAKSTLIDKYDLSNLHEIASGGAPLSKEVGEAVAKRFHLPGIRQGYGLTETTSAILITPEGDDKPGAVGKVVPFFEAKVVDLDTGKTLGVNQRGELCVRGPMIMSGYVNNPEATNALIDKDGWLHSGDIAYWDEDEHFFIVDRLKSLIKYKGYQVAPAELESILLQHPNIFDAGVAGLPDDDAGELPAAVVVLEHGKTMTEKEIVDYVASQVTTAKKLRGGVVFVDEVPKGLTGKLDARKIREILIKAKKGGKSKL

[6] = Luminescence Cell-Based Dose Confirmation HTS to Identify Inhibitors of Platelet Dense Granule Release. [Related pubchem assays: 1663 (Primary HTS), 1678 (Summary of Project)]; format: functional
Beta-galactosidase = Beta-galactosidase (Escherichia coli, UniProt Q8VNN2); assay: Dose response counterscreen for EBI2 assay utilizing the enzyme, b-galactosidase.; format: functional
Chain of Beta-galactosidase (Q8VNN2 whole entry, the tested form may be a part): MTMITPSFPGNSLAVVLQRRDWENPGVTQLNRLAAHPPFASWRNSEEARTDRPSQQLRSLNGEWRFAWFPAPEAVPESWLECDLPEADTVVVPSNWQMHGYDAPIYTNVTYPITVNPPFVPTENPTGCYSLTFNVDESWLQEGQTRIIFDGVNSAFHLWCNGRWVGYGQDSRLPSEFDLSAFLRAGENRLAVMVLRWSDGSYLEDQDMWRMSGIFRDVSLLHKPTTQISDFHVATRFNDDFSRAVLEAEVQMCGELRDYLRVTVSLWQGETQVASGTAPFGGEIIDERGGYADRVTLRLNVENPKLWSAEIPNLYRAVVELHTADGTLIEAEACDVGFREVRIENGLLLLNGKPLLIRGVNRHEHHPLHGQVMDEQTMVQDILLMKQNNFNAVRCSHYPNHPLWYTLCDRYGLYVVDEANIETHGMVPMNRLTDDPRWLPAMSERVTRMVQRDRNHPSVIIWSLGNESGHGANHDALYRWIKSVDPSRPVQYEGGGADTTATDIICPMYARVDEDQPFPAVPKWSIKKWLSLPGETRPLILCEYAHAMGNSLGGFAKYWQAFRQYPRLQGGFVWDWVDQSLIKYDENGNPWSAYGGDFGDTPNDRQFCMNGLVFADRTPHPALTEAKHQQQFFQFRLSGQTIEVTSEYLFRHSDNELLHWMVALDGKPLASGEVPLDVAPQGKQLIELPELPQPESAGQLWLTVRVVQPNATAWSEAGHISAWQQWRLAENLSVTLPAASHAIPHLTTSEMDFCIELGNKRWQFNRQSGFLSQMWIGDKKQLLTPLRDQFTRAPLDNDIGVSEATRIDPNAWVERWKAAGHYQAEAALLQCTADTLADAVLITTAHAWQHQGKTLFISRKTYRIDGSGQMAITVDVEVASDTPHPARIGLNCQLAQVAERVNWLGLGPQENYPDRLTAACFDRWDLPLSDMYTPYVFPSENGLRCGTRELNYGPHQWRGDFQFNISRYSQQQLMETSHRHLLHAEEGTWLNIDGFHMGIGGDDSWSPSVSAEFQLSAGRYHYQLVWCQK

[7] = biological target: T2, Oxysterols receptor LXR-beta (Homo sapiens, UniProt P55055); format: functional, cell-based;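 further: Cell-based luminescence dose-response assay of agonist activity at LXR, run as a confirmatory counterscreen to a daf-12 agonist screen; HEK293 cells with Gal4-LXR fusion and GAL4-driven luciferase reporter; agonist potency from rising luciferase signal of a Gal4-LXR reporter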
T2 sequence (P55055 whole entry): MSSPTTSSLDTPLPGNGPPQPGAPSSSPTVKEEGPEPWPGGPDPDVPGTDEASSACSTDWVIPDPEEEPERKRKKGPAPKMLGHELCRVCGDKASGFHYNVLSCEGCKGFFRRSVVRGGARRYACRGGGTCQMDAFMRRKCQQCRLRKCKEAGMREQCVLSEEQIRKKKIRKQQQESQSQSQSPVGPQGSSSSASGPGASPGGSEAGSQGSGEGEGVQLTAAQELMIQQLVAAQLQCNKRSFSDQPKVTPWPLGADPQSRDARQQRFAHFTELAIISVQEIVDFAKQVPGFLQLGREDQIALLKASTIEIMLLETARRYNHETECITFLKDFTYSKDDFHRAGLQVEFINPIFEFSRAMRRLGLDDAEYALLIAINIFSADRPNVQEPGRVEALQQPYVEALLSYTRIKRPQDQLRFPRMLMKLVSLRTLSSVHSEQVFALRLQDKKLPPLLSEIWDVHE

cells [8] = assay: cells
[9] = biological target: Fructose-bisphosphate aldolase (Mycobacterium tuberculosis, UniProt P9WQA3); assay: Fluorescence-based biochemical high throughput dose response assay for inhibitors of the fructose-bisphosphate aldolase (FBA) of M. tuberculosis.; format: functional
Chain of Fructose-bisphosphate aldolase (P9WQA3 whole entry): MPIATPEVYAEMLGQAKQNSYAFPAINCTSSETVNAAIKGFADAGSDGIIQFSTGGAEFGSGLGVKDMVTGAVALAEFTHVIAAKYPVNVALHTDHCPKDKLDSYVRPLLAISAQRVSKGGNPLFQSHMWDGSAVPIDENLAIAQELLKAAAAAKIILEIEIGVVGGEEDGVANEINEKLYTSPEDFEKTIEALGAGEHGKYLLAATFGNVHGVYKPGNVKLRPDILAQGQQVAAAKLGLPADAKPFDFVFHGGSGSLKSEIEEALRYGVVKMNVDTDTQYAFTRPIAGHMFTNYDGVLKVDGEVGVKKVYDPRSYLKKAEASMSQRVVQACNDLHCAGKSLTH

[10] = human group III sPLA2 inhibitors, dose response, biochemical, QFRET, IC50 (AID 743457);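 further: green fluorescence rise as the enzyme cleaves BODIPY PC-A2 in liposomes; potency for inhibition of the enzyme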
[11] = system: Streptococcus sp. 'group A'; assay: growth inhibition of control SK(-) GAS strain, dose response, counter-screen for streptokinase expression inhibitor project, luminescence, kanamycin, BacTiterGlo, confirmation (AID 1900); format: functional, organism-based
Streptokinase A = biological target: T3, Streptokinase A (Streptococcus pyogenes serotype M1, UniProt P10520); assay: S. pyogenes streptokinase expression inhibitors, potency, dose response, plasminogen activation absorbance, OD405 (AID 1914); format: functional, Streptococcus pyogenes M1 GAS;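 further: secreted streptokinase activity via plasminogen activation per viability signal from cell pellet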
T3 sequence (P10520 whole entry): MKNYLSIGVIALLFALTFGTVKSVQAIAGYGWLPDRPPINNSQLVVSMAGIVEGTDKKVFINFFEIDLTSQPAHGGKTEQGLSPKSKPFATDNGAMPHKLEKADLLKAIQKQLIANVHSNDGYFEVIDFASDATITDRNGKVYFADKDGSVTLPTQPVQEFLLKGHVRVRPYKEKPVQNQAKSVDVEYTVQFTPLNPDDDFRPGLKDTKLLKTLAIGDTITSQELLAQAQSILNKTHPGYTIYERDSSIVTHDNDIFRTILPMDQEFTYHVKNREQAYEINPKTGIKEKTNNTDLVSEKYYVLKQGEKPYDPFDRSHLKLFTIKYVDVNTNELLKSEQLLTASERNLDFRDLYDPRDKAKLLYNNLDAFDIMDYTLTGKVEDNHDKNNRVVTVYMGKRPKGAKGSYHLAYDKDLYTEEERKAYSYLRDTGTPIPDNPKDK

Streptococcus = assay: Group A Streptococcus viability loss, dose response, counter-screen for streptokinase expression inhibitor project, luminescence, BacTiterGlo (AID 1915); format: functional, organism-based;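 further: potency for reduction of bacterial viability or growth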
Mu-type opioid receptor = Mu-type opioid receptor (Homo sapiens, UniProt P35372); format: functional, cell-based;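 further: U2OS cells with beta-arrestin recruitment to OPRM1 by beta-gal complementation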
Chain of Mu-type opioid receptor (P35372 whole entry): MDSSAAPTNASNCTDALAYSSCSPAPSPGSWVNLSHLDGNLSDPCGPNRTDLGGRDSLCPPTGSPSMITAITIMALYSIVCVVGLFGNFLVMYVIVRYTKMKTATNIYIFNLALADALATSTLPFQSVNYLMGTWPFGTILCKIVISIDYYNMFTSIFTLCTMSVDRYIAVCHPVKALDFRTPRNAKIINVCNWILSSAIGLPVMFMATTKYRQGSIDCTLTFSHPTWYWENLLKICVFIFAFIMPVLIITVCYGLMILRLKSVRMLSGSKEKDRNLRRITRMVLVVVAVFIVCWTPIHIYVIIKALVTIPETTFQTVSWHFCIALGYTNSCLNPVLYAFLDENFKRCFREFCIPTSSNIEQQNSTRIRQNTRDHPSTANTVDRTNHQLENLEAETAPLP

[12] = biological target: 5-hydroxytryptamine receptor 2A (Mus musculus, UniProt P35363); format: functional, cell-based;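 further: CHO-K1 cells with tagged receptor and beta-arrestin; agonist potency measured as compound-induced activation of the receptor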
Chain of 5-hydroxytryptamine receptor 2A (P35363 whole entry): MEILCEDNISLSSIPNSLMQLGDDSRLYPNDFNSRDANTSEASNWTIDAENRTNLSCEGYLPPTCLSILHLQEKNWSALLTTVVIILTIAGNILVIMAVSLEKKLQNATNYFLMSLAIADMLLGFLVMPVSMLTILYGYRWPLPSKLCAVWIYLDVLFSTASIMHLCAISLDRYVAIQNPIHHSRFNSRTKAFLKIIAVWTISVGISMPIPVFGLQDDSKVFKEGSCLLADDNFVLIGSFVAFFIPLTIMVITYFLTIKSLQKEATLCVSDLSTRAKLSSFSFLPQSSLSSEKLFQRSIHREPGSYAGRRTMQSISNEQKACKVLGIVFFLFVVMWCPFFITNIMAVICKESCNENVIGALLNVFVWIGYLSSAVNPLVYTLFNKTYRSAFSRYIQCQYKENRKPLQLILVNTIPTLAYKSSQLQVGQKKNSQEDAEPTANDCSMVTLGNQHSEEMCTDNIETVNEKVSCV

[13] = Late stage assay provider results from the probe development effort to identify selective inhibitors of heat shock protein 90 (HSP90): Absorbance-based cell proliferation assay in SKBR3 cells.; format: functional; conditions: SK-BR-3
[14] = Luminescence Cell-Based Dose Confirmation HTS to Identify Activators of 5'UTR Stem-Loop Driven Alpha-Synuclein mRNA Translation in H4 Neuroglioblastoma Cells. [Related pubchem assays: 1829 (Project Summary), 1814 (Primary HTS)]; format: functional
[15] = Luminescence Cell-Based Dose Response HTS to Identify Activators of Luciferase Translation or Activity in H4 […] Cells. [Related pubchem assays: 1829 (Project Summary), 1814 (Primary HTS)]; format: functional
H4 = assay: Luminescence Cell-Based Dose Response HTS to Identify Activators of 5'UTR Stem-Loop Driven Prion Protein mRNA Translation in H4 Neuroglioblastoma Cells. [Related pubchem assays: 1829 (Project Summary), 1814 (Primary HTS)]; format: functional; conditions: Homo sapiens
[16] = biological target: T4, Calpain-2 catalytic subunit (Sus scrofa, UniProt P43367); assay: pig calpain II inhibitor potency, dose response, biochemical, fluorogenic peptide substrate (AID 1420); format: functional
T4 sequence (P43367 whole entry): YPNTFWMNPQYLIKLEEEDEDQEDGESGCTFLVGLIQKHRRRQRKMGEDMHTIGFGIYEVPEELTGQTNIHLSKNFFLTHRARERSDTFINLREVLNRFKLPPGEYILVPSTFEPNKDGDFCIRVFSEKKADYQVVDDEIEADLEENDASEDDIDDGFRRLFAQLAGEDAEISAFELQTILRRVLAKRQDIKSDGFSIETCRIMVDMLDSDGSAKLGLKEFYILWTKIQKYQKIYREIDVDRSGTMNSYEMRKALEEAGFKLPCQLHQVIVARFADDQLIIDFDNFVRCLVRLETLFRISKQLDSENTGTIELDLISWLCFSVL

[17] = inhibitors of HIV Env-driven cell fusion, dose response, cherry-pick (AID 652057); format: functional, cell-based
[18] = inhibitors of clade B AD8 Env fusion, dose response, cell-based, cherry-pick (AID 652062); format: functional;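 further: luciferase signal from cell-cell fusion driven by HIV-1 clade B AD8 Env; potency is for inhibitors of fusion seen as a drop in luminescence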
[19] = biological target: 1-phosphatidylinositol 4,5-bisphosphate phosphodiesterase gamma-1 (Homo sapiens, UniProt P19174); assay: Counterscreen for inhibitors of phospholipase C isozymes (PLC-B3): Fluorescence-based biochemical high throughput dose response assay to identify inhibitors of phospholipase C isozymes (PLC-gamma1).
Chain of 1-phosphatidylinositol 4,5-bisphosphate phosphodiesterase gamma-1 (P19174 whole entry): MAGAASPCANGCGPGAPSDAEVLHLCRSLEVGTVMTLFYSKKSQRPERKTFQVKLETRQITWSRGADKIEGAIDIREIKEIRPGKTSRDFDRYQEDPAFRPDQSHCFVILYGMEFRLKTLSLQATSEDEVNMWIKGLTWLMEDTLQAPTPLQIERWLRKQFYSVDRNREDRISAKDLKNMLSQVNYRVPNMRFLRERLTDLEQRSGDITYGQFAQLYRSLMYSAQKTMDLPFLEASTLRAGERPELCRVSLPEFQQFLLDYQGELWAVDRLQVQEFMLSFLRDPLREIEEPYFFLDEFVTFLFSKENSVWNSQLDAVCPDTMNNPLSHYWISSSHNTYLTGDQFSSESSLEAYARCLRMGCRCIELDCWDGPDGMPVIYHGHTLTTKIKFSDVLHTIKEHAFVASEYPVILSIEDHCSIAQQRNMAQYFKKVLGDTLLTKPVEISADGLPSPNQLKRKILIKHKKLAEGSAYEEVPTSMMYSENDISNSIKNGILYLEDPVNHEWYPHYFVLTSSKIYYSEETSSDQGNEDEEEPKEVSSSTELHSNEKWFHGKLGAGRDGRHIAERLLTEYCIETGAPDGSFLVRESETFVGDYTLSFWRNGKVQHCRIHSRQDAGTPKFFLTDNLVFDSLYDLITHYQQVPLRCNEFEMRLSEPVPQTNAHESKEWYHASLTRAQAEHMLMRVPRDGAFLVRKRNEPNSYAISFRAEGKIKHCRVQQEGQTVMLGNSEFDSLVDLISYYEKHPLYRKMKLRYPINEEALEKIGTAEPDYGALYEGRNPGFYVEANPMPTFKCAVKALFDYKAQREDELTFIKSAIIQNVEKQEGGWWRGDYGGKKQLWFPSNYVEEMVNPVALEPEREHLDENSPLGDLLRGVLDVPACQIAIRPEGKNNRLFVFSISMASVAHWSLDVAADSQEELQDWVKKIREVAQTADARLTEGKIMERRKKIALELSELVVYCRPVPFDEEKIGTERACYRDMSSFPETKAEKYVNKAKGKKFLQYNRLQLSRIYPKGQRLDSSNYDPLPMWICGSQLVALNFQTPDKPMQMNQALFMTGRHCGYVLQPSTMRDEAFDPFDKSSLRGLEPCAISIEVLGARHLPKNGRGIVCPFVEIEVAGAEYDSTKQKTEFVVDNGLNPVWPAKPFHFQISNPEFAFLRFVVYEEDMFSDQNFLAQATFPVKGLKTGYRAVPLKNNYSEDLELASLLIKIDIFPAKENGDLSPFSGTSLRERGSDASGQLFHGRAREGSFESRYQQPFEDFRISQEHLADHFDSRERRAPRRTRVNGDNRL

[20] = biological target: 1-phosphatidylinositol 4,5-bisphosphate phosphodiesterase beta-3 (Homo sapiens, UniProt Q01970); assay: Fluorescence-based biochemical high throughput dose response assay to identify inhibitors of phospholipase C isozymes (PLC-B3).
[21] = biological target: COUP transcription factor 2 (Homo sapiens, UniProt P24468); assay: Luminescence-based cell-based high throughput dose response assay to identify inhibitors of COUP-TFII (NR2F2).; format: functional;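 further: HEK293 cells transiently cotransfected with COUP-TFII expression vector and reporter; luciferase reporter luminescence driven by COUP-TFII from the pX2-168 reporter plasmid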
Chain of COUP transcription factor 2 (P24468 whole entry): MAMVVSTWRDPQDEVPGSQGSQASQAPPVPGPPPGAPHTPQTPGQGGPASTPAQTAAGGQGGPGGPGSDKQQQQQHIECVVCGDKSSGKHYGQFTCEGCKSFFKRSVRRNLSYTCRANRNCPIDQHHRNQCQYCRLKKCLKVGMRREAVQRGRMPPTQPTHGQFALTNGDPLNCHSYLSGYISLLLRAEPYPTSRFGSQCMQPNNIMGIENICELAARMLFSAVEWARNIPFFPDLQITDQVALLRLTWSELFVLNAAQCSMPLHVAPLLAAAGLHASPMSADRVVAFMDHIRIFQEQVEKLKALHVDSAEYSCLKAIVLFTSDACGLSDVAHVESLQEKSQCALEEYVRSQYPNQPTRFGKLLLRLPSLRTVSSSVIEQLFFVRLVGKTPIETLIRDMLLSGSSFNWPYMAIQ

T1 sequence (Q96RJ0 whole entry): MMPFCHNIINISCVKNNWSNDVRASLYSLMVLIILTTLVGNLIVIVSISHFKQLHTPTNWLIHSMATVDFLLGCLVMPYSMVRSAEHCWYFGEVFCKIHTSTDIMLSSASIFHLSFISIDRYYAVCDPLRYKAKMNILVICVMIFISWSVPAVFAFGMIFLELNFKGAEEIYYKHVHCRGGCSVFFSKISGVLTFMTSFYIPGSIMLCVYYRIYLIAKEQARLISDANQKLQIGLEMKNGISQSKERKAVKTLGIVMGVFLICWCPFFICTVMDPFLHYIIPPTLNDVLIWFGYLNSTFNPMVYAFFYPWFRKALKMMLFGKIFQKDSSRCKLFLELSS

## CCOC(=O)C(NC(=O)CC)(N1CCc2ccccc2C1)C(F)(F)F (stereo unspecified)
Cells [1]
  IC50: > 29.9 µM (inactive)
[2]
  EC50: 0.125 µM (active)
[3]
  IC50: 1.03 µM (active)
Cells [4]
  EC50: > 29.9 µM (inactive)

## CNC(=O)/C(C#N)=C/c1ccc(-c2nc3ccccc3s2)o1
[5]
  EC50: > 112 µM (not active)
[6]
  EC50: > 112 µM (not active)
Beta-galactosidase
  IC50: > 80 µM (inactive)

## CCCC#Cc1ccc2c(c1)COc1c3ccccc3nn1-2
[7]
  EC50: > 67.5 µM (inactive)
Cells [8]
  EC50: > 67.5 µM (inactive)

## CCCn1c(-c2cc(OC)c(OC)c(OC)c2)nc2c1c(=O)[nH]c(=O)n2Cc1ccccc1
[9]
  IC50: 1.32 µM (active)

## O=C(NNC(=S)Nc1ccccc1)NNC(=S)Nc1ccccc1
[10]
  IC50: > 122 µM (inactive)

## Nc1nc(CN2CCN(c3ccccc3)CC2)nc(N2CCCc3ccccc32)n1
[11]
  EC50: 9.04 µM (active)
Streptokinase A
  EC50: > 150 µM (not active)
Streptococcus
  EC50: > 150 µM (not active)
Mu-type opioid receptor
  EC50: 92.5 µM (inactive)
[12]
  EC50: 0.939 µM (active)

## COC(=O)c1ccc2nc(NC(=O)C3CCCCC3)sc2c1
[13]
  IC50: 51.6 µM (inactive)

## O=C(Nc1nc(COc2ccccc2)cs1)C12CC3CC(CC(C3)C1)C2
[14]
  EC50: 26.8 µM (active)
[15]
  EC50: 20.7 µM (active)
H4
  EC50: 19 µM (active)
[16]
  IC50: 2.03 µM (not active)
[17]
  AC50: 49.8 µM (active)
[18]
  AC50: 34.9 µM (active)
[19]
  IC50: > 123 µM (inactive)
[20]
  IC50: > 123 µM (inactive)

## CC1(C)CC(=O)C=C(c2ccc(-c3cnc4ccccc4c3)cc2)C1=O
[21]
  IC50: 4.87 µM (active)
